Experiments:
GDNF = assay: RT-PCR of GDNF mRNA in astroglial cultures; assay type: cell-based, rat; conditions: memantine 10 μM, time-dependent, 0 min to 24 h
Description: GDNF mediated memantine-induced neurotrophic effects. Rat primary astroglia were exposed to 10 μM memantine for various time points ranging from 0 minute to 24 h. (FIG. 5A) Total RNA was extracted. […] (FIG. 5B) The ratio of densitometry values of GDNF and β-actin was analyzed and normalized to 0 min value. (FIG. 5C) Total protein of astroglial cells was extracted. Western blot analyses were performed with the antibody to GDNF. GAPDH was used as loading control. (FIG. 5D) The ratio of densitometry values of GDNF and GAPDH was analyzed and normalized to 0 min value. Values were expressed as mean±S.E.M. of three independent experiments. *p<0.05, **p<0.01, ***p<0.001, Bonferroni t-test vs 0 min for FIG. 5B and FIG. 5D; (FIG. 5E) Neuron-glia cultures were treated with either control goat IgG (isotype Ab), or goat anti-GDNF, combined with memantine (10 μM) treatment. DA uptake capacity was measured 7 days later. Results were expressed as a percentage of the vehicle-treated control cultures and represented mean±S.E.M. of three independent experiments performed in triplicate. *p<0.05, **p<0.01, ***p<0.001, Bonferroni's test vs control; #p<0.05, Bonferroni t-test vs memantine treated cultures.
Mixed-glia cultures were first prepared from brains of 1-day-old Fisher 344 rat pups, as described previously. […]

microglia = assay: Superoxide assay (SOD-inhibitable WST-1 reduction) after LPS; assay type: cell-based; conditions: 30 min after LPS
Description: Extracellular superoxide (O2^−) production from microglia was determined by measuring the superoxide dismutase (SOD) inhibitable reduction of 2-(4-lodophenyl)-3-(4-nitrophenyl)-5-(2,4,-disulfophenyl)-2H-tetrazolium, monosodium salt, WST-1. Briefly, 200 μL of primary enriched-microglia were seeded (1×10^5/well) in 96-well plates. The cells were then incubated for 24 h at 37° C. in a humidified atmosphere of 5% CO2 and 95% air. Immediately before treatment, cells were washed twice with Hanks balanced salt solution (HBSS). To each well, 100 μL of HBSS with or without SOD (600 U/mL), 50 μL of vehicle or LPS, and 50 μL of WST-1 (1 mM) in HBSS were added. The cultures were incubated for 30 min at 37° C. and 5% CO2 and 95% air. The absorbance at 450 nm was read with a Spectra Max Plus microtiter plate spectrophotometer (Molecular Devices, Sunnyvale, Calif., USA). […] The amount of SOD-inhibitable superoxide was calculated and expressed as percent of vehicle-treated control cultures.
(§1) Neuron-glia cultures were pretreated for 30 min with MMT (3 μM) or vehicle before LPS stimulation. […] Production of superoxide (30 min after LPS) and iROS (2 h after LPS) was decreased by MMT treatment (FIGS. 6A and 6B). […] The production of PGE2 in cultures pretreated with 3 and 10 μM MMT decreased by 23% and 27% respectively (FIG. 6E).

PGE2 = PGE2 ELISA after LPS; assay type: cell-based
Description: The production of TNF-α was measured with a commercial ELISA kit from R&D Systems. The PGE2 release was measured with a commercial ELISA kit from Cayman Chemical Company.
as §1

[1] = Glutamate and aspartate concentrations in supernatants of primary neuron-glia cultures; assay type: cell-based; conditions: vehicle, 10 μM MMT, LPS 5 ng/ml, MMT plus LPS
Description: Primary neuron-glia cultures seeded in 24-well plates at a density of 5×10^5 cells/well for 7 days. Then, the cultures were treated with vehicle, 10 μM MMT, LPS 5 ng/ml, and MMT 10 μM and LPS 5 ng/ml, and supernatants derived from the primary neuron-glia cultures at indicated time points.
To determine the possibility that NMDA receptors might play a role in our mixed neuron/glia cultures in MMT-elicited neuroprotection, this invention determine the concentrations of excitatory amino acid, glutamate and aspartate in the supernatant of cultures after LPS treatment. Several authors reported the release of excitatory amino acid release from microglia by higher concentration of LPS (100 ng/ml). However, the concentration of glutamate released was limited to 10-20 μM, which may not be in sufficient concentrations to produce significant neuronal death (Obrenovitch et al. Excitotoxicity in neurological disorders--the glutamate paradox. Int J Dev Neurosci. 2000; 18:281-7.). In mixed neuron/glia cultures of this invention, with lower concentration of LPS (5 ng/ml) which was toxic to DA neurons, this invention could not detect any increases in both glutamate and aspartate (FIG. 13).

CC12CC3CC(C)(C1)CC(N)(C3)C2.Cl [MMT, 1-amino-3,5-dimethyladamantane hydrochloride]
GDNF mRNA levels (GDNF): significant main effects
production of superoxide (microglia): decreased
decrease of PGE2 production (PGE2; pretreated with 3 μM MMT): 23%
decrease of PGE2 production (PGE2; pretreated with 10 μM MMT): 27%
aspartate concentration in supernatant [1]: not obviously different
glutamate concentration in supernatant [1]: not obviously different

— patent US20150080475A1, “Memantine Protects Inflammation-Related Degeneration of Dopamine Neurons Through Inhibition of Over-Activated Microglia and Release of Neurotrophic Factors From Astroglia” (priority 2009, published 2015)
